Calls of active or inactive are those of the source.

Usually IC50 stands for the concentration that gives 50% inhibition. Usually EC50 stands for the concentration at which the effect is half-maximal. One may read the CC50 as the concentration that lowers cell viability or growth by half. Usually AC50 stands for the concentration giving half of the maximal activity seen.

For assay [1], the target named is Photoreceptor-specific nuclear receptor (Homo sapiens, UniProt Q9Y5X4). It counts as functional.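 Note: potency for compounds that break the NR2E3 corepressor complex and count as activators.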
Photoreceptor-specific nuclear receptor, sequence (Q9Y5X4 whole entry): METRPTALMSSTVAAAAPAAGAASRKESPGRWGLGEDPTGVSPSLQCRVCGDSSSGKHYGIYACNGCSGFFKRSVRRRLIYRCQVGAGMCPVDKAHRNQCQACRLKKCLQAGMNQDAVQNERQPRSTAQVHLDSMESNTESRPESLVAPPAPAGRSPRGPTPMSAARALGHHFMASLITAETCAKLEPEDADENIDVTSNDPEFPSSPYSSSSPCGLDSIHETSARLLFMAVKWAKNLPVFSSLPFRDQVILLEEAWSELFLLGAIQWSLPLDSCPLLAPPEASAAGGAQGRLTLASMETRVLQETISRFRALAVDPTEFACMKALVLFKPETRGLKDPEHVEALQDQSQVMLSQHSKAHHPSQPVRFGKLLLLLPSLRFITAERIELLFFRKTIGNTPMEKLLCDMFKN
The target in assay [2] is Peroxisome proliferator-activated receptor gamma/Nuclear receptor corepressor 2 (Homo sapiens, UniProt P37231+Q9Y618). It counts as functional.
The subject of assay [3] is HEK293. Briefly: inhibition of NOD1-driven NF-kB reporter – cell-based, luminescence, uHTS, primary screen (AID 1578). The note with it: Homo sapiens. It counts as functional.
Assay [4] concerns HEK293. Briefly: NOD2 signaling inhibitors in MDP-stimulated cells, cell-based, uHTS, luminescence (AID 2001). Format: functional. The note with it: Homo sapiens.
Assay [5] has as its target T1, Heat shock factor protein 1 (Mus musculus, UniProt P38532).
T1 sequence (P38532 whole entry): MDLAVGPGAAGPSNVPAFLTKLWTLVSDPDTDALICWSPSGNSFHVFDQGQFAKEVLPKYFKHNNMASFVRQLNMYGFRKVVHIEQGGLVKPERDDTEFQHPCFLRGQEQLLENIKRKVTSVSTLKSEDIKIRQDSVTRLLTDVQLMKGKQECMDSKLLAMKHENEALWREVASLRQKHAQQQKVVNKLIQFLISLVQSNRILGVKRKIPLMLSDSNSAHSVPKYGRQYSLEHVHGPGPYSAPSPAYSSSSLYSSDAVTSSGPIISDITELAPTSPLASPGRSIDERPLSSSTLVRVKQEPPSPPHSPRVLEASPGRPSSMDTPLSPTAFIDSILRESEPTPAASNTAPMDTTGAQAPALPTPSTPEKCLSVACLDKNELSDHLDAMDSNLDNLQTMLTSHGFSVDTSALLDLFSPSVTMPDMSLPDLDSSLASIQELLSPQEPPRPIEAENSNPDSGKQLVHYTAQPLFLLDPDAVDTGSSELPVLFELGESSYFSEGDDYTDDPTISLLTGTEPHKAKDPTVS
Description: enhancement of HSF1-driven luciferase signal – cell-based, NIH3T3, luminescence, dose retest, confirmation (AID 435004).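 Note: stress induced by proteasome inhibitor MG132 added 30 min after compound; luciferase reporter driven by HSF1 response element in NIH3T3 cells; actives raise luminescence as potentiators of the MG132 stress response.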 Format: functional.

In assay [6] the test system is HEK293. Briefly: cells. Format: functional, cell-based. The following applies: Homo sapiens.
The subject of assay [7] is BJ. Description: cells. Format: functional, cell-based. The note with it: Homo sapiens.
Assay [8] deals with HEK293. Briefly: cells. The note with it: Homo sapiens.
Assay [9] concerns the target Nucleotide-binding oligomerization domain-containing protein 1 (Homo sapiens, UniProt Q9Y239). Briefly: blockers of NOD1 pathway activity – revised, SAR follow-up (AID 2333). Format: functional.
For assay [10], the target named is Transitional endoplasmic reticulum ATPase (Homo sapiens, UniProt P55072). Description: p97 ATPase inhibitors, dose response, biochemical (AID 1534).
Transitional endoplasmic reticulum ATPase (Homo sapiens, UniProt P55072), sequence (P55072 whole entry): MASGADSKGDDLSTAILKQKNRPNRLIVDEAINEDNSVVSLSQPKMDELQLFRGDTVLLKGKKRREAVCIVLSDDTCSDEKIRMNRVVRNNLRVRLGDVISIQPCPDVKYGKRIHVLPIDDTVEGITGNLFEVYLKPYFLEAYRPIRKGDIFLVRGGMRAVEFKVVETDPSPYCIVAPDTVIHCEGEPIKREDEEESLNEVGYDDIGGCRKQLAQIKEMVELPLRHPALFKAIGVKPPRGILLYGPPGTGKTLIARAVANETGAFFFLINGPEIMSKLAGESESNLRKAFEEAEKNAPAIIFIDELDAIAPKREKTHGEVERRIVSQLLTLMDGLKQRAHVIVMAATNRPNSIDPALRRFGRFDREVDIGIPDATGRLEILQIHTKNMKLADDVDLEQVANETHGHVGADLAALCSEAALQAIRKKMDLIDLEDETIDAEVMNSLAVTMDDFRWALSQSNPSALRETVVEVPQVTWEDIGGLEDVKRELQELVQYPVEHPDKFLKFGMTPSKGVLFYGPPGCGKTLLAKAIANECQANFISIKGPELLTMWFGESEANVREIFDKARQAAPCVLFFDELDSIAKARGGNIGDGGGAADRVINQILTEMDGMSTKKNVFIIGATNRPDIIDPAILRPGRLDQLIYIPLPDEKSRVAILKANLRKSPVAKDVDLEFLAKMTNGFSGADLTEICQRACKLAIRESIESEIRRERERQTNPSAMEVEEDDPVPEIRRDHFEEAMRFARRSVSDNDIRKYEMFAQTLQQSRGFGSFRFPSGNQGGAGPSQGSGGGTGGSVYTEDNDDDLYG
A short description of assay [11]: DRD fibroblast viability loss – cell-based, non-viral oncogenic, luminescence, dose response (AID 1934). Format: functional. The following applies: Homo sapiens.
The nature of assay [12]: Luminescent dose response cell-based high throughput screening assay for inhibitors of the Janus kinase 2 mutant JAK2V617F. [Related pubchem assays: 1446 (Primary screen.), 1521 (Confirmation assay.), 1486 (Counter screen.)]. Format: functional. In general terms: The purpose of a counterscreen is to sort out artefacts and off-target activity.
In assay [13] the test system is BJ. Description: BJ-TERT fibroblast viability loss – cell-based, RAS-independent, luminescence, dose response (AID 1933). The note with it: Homo sapiens. It counts as functional.
Assay [14] concerns Vero. Description: cells. Format: functional. The note with it: Chlorocebus sabaeus.
Assay [15] has as its system BJ. Description: growth inhibition of engineered Ras-driven BJ cells – cell-based, alamar blue fluorescence, cherrypicked samples, dose response (AID 2631).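 Note: confirmatory dose-response assay in RAS-dependent BJ fibroblasts engineered with TERT, LT and ST, with cytotoxicity read by fluorescence.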 It counts as functional. The following applies: Homo sapiens. (In general: Resazurin is reduced to fluorescent resorufin, in cell work by metabolically active cells.)
Assay [16] concerns the target T2, Protein RecA (Mycobacterium tuberculosis, UniProt P9WHJ3).
T2 sequence (P9WHJ3 whole entry): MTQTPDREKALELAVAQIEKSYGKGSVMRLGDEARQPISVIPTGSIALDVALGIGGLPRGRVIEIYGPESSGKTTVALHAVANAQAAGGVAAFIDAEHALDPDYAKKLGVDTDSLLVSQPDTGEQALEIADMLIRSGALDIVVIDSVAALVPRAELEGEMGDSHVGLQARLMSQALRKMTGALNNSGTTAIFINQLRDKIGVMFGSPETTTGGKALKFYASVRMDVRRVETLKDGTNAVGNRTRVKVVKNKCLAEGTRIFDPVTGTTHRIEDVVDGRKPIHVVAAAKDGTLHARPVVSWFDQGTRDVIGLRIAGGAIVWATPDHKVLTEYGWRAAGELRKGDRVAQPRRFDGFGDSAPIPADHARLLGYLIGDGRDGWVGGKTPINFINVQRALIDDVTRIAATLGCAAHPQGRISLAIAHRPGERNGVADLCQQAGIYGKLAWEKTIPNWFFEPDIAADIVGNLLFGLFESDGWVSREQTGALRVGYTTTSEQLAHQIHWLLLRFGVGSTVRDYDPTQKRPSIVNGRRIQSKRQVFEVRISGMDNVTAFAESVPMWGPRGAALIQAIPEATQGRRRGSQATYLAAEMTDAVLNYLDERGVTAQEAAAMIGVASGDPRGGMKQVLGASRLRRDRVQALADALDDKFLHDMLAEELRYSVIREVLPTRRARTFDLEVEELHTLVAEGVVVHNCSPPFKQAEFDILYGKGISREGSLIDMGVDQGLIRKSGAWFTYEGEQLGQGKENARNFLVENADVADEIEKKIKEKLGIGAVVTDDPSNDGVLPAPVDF
Briefly: Fluorescence Cell-Free Homogeneous Dose Retest to Identify Inhibitors of RecA-Intein Splicing Activity. [Related pubchem assays (depositor defined):AID2097, AID2223, AID489010, AID492950]. Format: functional.

For assay [17], the target named is Transitional endoplasmic reticulum ATPase (Homo sapiens, UniProt P55072, C522A). Description: C522A mutant p97 ATPase inhibitors, dose response, counter-screen for p97 inhibitor project, biochemical, luminescence (AID 1544).
Transitional endoplasmic reticulum ATPase (Homo sapiens, UniProt P55072, C522A), sequence (P55072 2-806 C522A limits assumed): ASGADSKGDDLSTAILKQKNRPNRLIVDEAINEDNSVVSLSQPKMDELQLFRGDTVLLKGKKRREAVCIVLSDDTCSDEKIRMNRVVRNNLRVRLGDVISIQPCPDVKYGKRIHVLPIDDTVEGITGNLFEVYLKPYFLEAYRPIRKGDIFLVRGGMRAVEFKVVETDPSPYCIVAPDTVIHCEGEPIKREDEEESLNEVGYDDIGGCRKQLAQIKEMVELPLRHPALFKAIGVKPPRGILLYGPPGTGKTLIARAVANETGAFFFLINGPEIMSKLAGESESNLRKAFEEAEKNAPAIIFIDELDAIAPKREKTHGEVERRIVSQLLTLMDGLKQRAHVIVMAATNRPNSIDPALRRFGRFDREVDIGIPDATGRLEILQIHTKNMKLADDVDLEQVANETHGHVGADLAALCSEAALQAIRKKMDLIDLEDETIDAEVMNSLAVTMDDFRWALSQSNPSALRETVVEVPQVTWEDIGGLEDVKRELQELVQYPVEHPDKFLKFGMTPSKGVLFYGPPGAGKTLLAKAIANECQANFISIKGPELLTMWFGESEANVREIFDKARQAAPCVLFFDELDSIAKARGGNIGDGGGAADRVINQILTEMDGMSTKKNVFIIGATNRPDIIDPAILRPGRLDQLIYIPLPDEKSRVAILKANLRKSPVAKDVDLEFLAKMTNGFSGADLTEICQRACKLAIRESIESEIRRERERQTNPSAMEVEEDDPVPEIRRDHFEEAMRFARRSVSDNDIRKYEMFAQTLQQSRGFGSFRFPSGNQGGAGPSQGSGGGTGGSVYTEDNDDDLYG
Assay [18] addresses Tumor necrosis factor (Homo sapiens, UniProt P01375). Description: analog potency on TNFa NF-kB signaling – cell-based, revised, SAR follow-up (AID 2337). Format: functional.
Assay [19] concerns the target T3, Replicative DNA helicase DnaB (Mycobacterium tuberculosis, UniProt P9WMR3).
T3 sequence (P9WMR3 whole entry): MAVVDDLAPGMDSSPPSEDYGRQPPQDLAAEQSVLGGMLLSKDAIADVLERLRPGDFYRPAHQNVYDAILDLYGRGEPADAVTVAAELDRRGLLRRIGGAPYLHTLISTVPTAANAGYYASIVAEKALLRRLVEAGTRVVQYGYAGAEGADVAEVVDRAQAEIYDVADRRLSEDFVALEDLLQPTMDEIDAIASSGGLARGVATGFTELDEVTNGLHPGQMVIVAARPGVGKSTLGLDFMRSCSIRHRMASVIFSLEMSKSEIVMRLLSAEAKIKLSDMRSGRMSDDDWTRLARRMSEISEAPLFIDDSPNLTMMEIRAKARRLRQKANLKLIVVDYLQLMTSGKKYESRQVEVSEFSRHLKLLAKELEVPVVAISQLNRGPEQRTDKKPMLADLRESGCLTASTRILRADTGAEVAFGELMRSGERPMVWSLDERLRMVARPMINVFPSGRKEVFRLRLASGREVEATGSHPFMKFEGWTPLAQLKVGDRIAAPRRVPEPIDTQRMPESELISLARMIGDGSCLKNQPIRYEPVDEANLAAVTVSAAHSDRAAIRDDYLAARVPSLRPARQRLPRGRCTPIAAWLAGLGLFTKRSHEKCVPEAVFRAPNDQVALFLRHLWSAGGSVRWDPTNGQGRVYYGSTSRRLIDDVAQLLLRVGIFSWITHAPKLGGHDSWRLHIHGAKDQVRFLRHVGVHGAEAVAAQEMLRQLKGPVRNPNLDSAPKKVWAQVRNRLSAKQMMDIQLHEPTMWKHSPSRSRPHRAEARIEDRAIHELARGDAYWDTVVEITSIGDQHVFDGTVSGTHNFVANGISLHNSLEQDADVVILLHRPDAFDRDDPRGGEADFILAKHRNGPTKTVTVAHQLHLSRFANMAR
Description: DnaB intein splicing inhibitors, dose response, biochemical, cell-free fluorescence (AID 449749). Format: functional.

Assay [20] concerns BJ. Briefly: BJ-TERT-LT-ST fibroblast viability loss – cell-based, RAS-independent, luminescence, dose response (AID 1935).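 Note: BJ fibroblasts immortalized with TERT plus LT and ST oncogenes.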 Format: functional. The following applies: Homo sapiens.
For assay [21], the system named is HEK293. Description: cells. The note with it: Homo sapiens. Format: functional, cell-based. The source holds these as a separate data set.
Assay [22] deals with Cyclin-dependent kinase 5/CDK5 activator 1 (Homo sapiens, UniProt Q00535). Description: blockade of human CDK5 activity – biochemical, cherry-picked samples, set 2, dose response (AID 504545).
Cyclin-dependent kinase 5/CDK5 activator 1, sequence (Q00535 whole entry): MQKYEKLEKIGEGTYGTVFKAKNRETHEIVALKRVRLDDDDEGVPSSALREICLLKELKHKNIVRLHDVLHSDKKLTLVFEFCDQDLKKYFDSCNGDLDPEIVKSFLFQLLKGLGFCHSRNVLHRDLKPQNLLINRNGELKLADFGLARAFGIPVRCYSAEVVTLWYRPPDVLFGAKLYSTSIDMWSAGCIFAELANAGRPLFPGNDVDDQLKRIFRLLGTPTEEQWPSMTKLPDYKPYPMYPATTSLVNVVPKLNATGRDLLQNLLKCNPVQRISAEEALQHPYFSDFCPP
Cyclin-dependent kinase 5/CDK5 activator 1, sequence (Q15078 whole entry, further chain): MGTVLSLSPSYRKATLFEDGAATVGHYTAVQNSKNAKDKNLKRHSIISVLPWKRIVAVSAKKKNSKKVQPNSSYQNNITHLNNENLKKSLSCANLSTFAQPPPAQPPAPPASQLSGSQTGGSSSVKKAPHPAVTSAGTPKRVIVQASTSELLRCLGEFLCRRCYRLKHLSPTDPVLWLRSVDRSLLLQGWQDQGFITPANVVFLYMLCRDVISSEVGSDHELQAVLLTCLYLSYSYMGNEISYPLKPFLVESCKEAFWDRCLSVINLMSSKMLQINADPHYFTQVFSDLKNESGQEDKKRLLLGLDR
Assay [23] addresses Cytochrome P450 2C9 (Homo sapiens, UniProt P11712). The note with it: Potency.

Nucleotide-binding oligomerization domain-containing protein 1, sequence (Q9Y239 whole entry, the tested form may be a part): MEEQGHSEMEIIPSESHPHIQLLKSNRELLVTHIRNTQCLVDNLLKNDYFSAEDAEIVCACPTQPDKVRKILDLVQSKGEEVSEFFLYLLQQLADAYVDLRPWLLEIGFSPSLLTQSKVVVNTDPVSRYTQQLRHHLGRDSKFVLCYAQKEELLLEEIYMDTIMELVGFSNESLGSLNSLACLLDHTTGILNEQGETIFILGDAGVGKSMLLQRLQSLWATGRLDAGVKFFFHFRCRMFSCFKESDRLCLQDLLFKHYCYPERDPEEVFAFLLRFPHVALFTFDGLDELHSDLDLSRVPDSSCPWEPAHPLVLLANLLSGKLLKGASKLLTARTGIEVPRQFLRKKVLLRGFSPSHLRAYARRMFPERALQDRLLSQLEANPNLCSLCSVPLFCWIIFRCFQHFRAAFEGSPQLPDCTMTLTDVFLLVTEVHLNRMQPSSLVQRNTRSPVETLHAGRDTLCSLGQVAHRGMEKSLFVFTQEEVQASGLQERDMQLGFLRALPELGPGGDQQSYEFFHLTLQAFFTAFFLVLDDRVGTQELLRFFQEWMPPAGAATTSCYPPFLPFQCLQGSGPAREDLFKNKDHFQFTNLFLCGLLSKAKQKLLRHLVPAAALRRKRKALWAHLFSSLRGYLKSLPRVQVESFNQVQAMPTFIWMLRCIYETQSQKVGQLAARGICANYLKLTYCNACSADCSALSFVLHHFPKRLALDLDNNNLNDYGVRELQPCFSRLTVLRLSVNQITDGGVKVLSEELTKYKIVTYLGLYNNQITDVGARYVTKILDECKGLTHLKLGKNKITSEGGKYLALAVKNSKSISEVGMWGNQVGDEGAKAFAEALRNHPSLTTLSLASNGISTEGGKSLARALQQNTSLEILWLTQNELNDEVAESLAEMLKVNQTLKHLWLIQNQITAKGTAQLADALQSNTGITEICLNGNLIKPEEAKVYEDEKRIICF
Cytochrome P450 2C9, sequence (P11712 whole entry): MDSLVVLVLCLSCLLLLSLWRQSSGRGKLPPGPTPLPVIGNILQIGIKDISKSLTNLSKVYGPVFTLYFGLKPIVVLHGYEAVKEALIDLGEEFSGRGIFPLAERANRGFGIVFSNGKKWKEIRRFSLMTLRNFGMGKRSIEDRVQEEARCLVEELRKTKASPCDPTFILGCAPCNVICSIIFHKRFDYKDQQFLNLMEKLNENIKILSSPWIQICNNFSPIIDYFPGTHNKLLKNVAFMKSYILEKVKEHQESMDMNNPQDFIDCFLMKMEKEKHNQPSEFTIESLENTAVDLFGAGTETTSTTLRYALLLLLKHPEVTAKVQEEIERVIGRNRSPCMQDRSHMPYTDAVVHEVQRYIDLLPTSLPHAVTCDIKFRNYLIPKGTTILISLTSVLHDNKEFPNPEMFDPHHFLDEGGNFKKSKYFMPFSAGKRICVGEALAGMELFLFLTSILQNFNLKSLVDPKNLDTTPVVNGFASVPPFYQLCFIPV
Tumor necrosis factor, sequence (P01375 whole entry): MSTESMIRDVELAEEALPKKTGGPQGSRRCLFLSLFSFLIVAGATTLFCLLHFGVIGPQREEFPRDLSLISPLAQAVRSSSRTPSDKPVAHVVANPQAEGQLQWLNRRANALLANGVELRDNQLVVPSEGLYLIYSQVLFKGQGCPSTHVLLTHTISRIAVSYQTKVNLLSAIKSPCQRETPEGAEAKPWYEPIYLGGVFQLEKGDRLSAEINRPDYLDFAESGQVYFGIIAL

For the compound `Cc1cc(-c2ccc(Cl)cc2)c(C#N)c(N)n1`, the values for the IC50 in [1] and in assay [2] were 33 µM (not active) and 3.26 µM (active), respectively.

With `Nc1nc(CCl)nc(Nc2ccc3ccccc3c2)n1`, the EC50 in assay [3] is 11.1 µM (active); in assay [5], > 260 µM (inactive); in [7], 0.717 µM (inconclusive); in assay [11] it was 0.289 µM (active); in [13] it was < 0.12 µM (active); in assay [15], 4.62 µM (active). Also, the 50% effective concentration (EC50) in assay [16] is 19.4 µM (active); in assay [20], 8.32 µM (inconclusive). The IC50 was 7.7 µM (active) in assay [4]; 5.4 µM (active) in [6]; > 20 µM (inactive) in [8]; 3.43 µM (active) in assay [9]; > 50 µM (not active) in assay [10]; 0.476 µM (active) in assay [12]. Moreover, the IC50 was > 50 µM (not active) in assay [17], 11.1 µM (active) in assay [18] and > 20 µM (inactive) in assay [21]. Also, the CC50 in assay [14] is 1.24 µM (active). Further, in assay [19], the AC50 is 15.4 µM (active).

As for `CC(C)(C)C(=O)c1sc(Nc2ccccc2)nc1N`, the half-maximal activity concentration (AC50) in assay [22] is 23.4 µM (active).

As to `CCC[C@@H]1O[C@@H]2C[C@@H]3[C@@H]4CCC5=CC(=O)C=C[C@@]5(C)[C@H]4[C@H](O)C[C@@]3(C)[C@@]2(C(=O)CO)O1`, the AC50 in assay [23] was 25.1 µM (inconclusive).

(Values after ChEMBL document CHEMBL1201862, “PubChem BioAssay data set” (2004).)
